Data published in patent publication US9534259B2, “DOT1 histone methyltransferases as a target for identifying therapeutic agents for leukemia” (The University of North Carolina at Chapel Hill, priority 2003, dated 2017).
“Also recorded” adds a separate entry of the source. Ends that are not written are not given here. Peptide text beside a SMILES is read from it. * marks the point of attachment. Cbz = O=C(OCc1ccccc1)*

Legend:
[1] = system: CRM1-mediated nuclear export of hDOT1L NESs fused with EGFP; format: cell-based, human; details: 20 nM, eight hours after treatment, U2OS cells, FIG. 10E
Procedure: To further characterize the nuclear export ability of the three NESs identified, it was determined whether the NESs were involved in active nuclear export mediated by the CRM1 (chromosomal region maintenance) pathway. CRM1 was initially identified as a S. pombe protein whose mutation affects higher order chromosome structure (Adachi and Yanagida (1989) J. Cell Biol. 108:1195-1207). Subsequent studies indicate that CRM1 is an export receptor for Leucine-rich nuclear export signals (Fornerod, et al. (1997) Cell 90:1051-1060; Ossareh-Nazari, et al. (1997) Science 278:141-144; Stade, et al. (1997) Cell 90:1041-1050). […] To investigate the effect of LMB treatment on the nuclear export ability of the NESs, U2OS cells were transfected with constructs encoding each of the three NESs fused with EGFP in the presence or absence of 20 nM of LMB. Eight hours after LMB treatment, green fluorescence was observed under a microscope in living cells.

[2] = system: proteasome (stability of ubiquitinated FLAG-Tat and FLAG-hDOT1L); assay: In vivo ubiquitination assay in 293T cells with proteasome inhibitor; format: cell-based, human; parameters: dose or concentration left out as unconfirmed; details: HA-Ub co-expressed
Procedure: pcDNA3b-FLAG®-hDOT1L and pcDNA3b-FLAG®-Tat were transfected to 293T cells with or without pHA-Ubiquitin (Ub) by using FUGENE™ 6 transfection reagent (Roche Diagnostics, Indianapolis, Ind.). Twenty-four hours after transfection, MG132 was added at the final concentration of […], and the cells were cultured for […]. Cells were then lysed with lysis buffer (50 mM Tris-HCl, pH 7.5, 0.5 mM EDTA, 1% SDS, and 1 mM DTT), and boiled for 10 minutes before centrifugation at 14,000 rpm for 10 minutes. The supernatant was diluted by 10-fold with NP40 lysis buffer (50 mM Tris-HCl, pH 7.5, 150 mM NaCl, 0.1% NP40, 50 mM NaF, 10% glycerol, 1 mM DTT, and 1 mM PMSF), and incubated with […] of FLAG® (M2) antibody for 4 hours at 4° C. Protein G beads were then added and incubated further for one hour. The beads were washed three times with lysis buffer containing 0.5% of NP40 before eluting the protein with SDS sample buffer for SDS-PAGE analysis.
Protein ubiquitination is the major pathway for rapid protein degradation (Pickart (2001) Annu. Rev. Biochem 70:503-533). Toward this end, we asked whether hDOT1L is subjected to ubiquitination. We transfected 293T cells with a construct encoding FLAG®-hDOT1L with or without co-transfection of a construct encoding HA-tagged ubiquitin. […]

hDOT1L Δ(376-390) = molecular target: T1, hDOT1L Δ(376-390) (Homo sapiens, UniProt Q8TEK3, DEL376-390); assay: Histone methyltransferase assay with peptide competition; format: biochemical; details: 1.5, 15 or 150 μM peptide; oligo-nucleosome substrate; FIG. 6D lanes 5-8
T1 construct: GST (N, cleaved yes); made in house; host or cells: E. coli
Procedure: (§1) Histone methyltransferase assay was performed using established methods (Wang, et al. (2001) Science 293:853-857). Oligo-nucleosomes purified from HeLa cells or chicken blood cells were quantified and equal concentrations were used in each assay. Briefly, recombinant hDOT1L proteins (0.75 μM) were incubated with oligo-nucleosomes (1.5 μM) in reactions containing 20 mM Tris-HCl (pH 8.0), 4 mM EDTA, 1 mM PMSF, 0.5 mM DTT, and 0.5 μL ^3H-SAM (15 Ci/mM; NEN™ Life Science Products) for 1 hour at 30° C. For peptide competition, 1.5 μM, 15 μM, or 150 μM of positively charged C-RS10 peptide ([…] SEQ ID NO:20) were added to reactions. Reactions were stopped by addition of 7 μL of 5×SDS loading buffer and proteins were separated in an 18% SDS-PAGE. Following stain and destain of COMMASSIE® Blue, gels were treated with Rapid Autoradiography Enhancer (NEN™ Life Science Products, Boston Mass.) for 40 minutes, dried, and exposed to X-ray films. For quantitation, gel slices were excised and counted with scintillation counting. Two independent experiments were performed at the same time and average ^3H (CPM) values were used in the figures.

hDOT1L(1-416) = molecular target: T2, hDOT1L(1-416) (Homo sapiens, UniProt Q8TEK3); assay: as above; format: biochemical; details: 1.5, 15 or 150 μM peptide; oligo-nucleosome substrate; FIG. 6D lanes 1-4
T2 construct: The plasmid expressing the first 416 residues of hDOT1L, pGEX-KG/hDOT1L(1-416); GST (N, cleaved yes); made in house; host or cells: E. coli
Procedure: as §1

[3] = system: hDOT1L binding to HeLa mono-nucleosomes; assay: Gel mobility shift assay (mono-nucleosome binding) with competitor peptide; parameters: species or system human; details: HeLa mono-nucleosomes 1.5 μM
Procedure: Different amount of recombinant hDOT1L proteins were incubated with HeLa mono-nucleosomes (1.5 μM) under the same conditions as those in the histone methyltransferase assay, except that SAM is omitted. Following incubation for 1 hour at 30° C., samples were resolved in a 1.8% agarose gel and visualized under UV by ethidium bromide staining.
We next examined mono-nucleosome binding of hDot1(1-416) and several of its truncation variants by gel mobility shift assays (GSMA). […] Consistent with this, we could detect strong, but apparently non-sequence specific, binding of hDOT1L(1-416) with DNA extracted from mono-nucleosomes. To further probe the nature of hDOT1L-nucleosome interaction, we used a 21-residue highly charged peptide, C-RS10, containing 10 tandem repeats of arginine and serine as a competitor in our nucleosome binding and HMTase assays.

T1 sequence (Q8TEK3 with tags, fused parts or gaps DEL376-390): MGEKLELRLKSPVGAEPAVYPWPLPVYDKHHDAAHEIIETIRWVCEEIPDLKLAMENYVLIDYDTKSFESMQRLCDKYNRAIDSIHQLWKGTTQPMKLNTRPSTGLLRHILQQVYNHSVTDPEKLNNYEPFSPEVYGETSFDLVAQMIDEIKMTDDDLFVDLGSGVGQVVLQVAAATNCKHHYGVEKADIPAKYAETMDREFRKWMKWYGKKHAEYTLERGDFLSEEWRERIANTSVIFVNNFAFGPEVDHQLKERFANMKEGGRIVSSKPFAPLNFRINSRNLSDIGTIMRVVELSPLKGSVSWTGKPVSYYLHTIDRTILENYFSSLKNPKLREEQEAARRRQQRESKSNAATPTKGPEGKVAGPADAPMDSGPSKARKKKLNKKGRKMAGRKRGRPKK
T2 sequence (Q8TEK3 1-416): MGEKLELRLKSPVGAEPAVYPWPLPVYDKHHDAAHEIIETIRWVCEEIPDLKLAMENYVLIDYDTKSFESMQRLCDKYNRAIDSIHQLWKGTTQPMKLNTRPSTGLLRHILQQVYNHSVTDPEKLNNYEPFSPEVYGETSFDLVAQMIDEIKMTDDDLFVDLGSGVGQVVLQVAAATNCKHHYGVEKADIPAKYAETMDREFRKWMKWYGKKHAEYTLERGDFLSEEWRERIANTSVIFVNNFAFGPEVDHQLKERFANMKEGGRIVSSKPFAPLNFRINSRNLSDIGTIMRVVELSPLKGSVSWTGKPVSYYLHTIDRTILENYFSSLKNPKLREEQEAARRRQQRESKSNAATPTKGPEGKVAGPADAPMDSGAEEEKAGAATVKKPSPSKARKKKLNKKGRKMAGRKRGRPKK

Compound: CCC(=C/[C@H](C)C/C=C/C(C)=C/[C@@H](C)C(=O)[C@@H](C)[C@H](O)[C@@H](C)C/C(C)=C/C(=O)O)/C=C/[C@@H]1OC(=O)C=C[C@@H]1C [LMB, Leptomycin B]
- Effect on nuclear export by NES1, NES2, NES3 fused with EGFP [1]: prevented nuclear export by all the three NESs; also recorded: can be blocked

Compound: CC(C)C[C@@H](C=O)NC(=O)[C@H](CC(C)C)NC(=O)[C@H](CC(C)C)NC(=O)OCc1ccccc1 [MG132] (Cbz-Leu-Leu-Leu-aldehyde)
- Stabilization of ubiquitinated FLAG-hDOT1L ([2]; FIG. 8A lanes 4 and 5): did not appear to stabilize
- Stabilization of ubiquitinated Tat ([2]; FIG. 8A lanes 6 and 7): successfully stabilized ubiquitinated Tat

Compound: CRSRSRSRSRSRSRSRSRSRS
- HMTase activity of Δ(376-390) in presence of competitor peptide (hDOT1L Δ(376-390)): effectively competed
- HMTase activity of hDOT1L(1-416) in presence of competitor peptide (hDOT1L(1-416)): effectively competed
- Effect of peptide on mono-nucleosome migration in GSMA [3]: prevented mono-nucleosomes from entering the gel well
